Where “and” joins values, the source holds several entries; their conditions need not be identical. Identical values can stand only once.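 These data come from cells grown in 96-well plates and exposed to compound for 48 hours at five concentrations. GI50 = concentration required for 50% inhibition of growth. At the TGI there is no net growth.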 *1 amine or outer side, *2 acyl side, *3 side chain or, on linkers, in order; H or OH if unused. Where a SMILES comes first, the peptide text is derived from it. Bridges are numbered along the chain shown (N, C = ends). [ ]: non-standard residue; d: D form. The star is where a group is joined. Phe(3-Me) = Cc1cccc(C[C@H](N)C(=O)O)c1; NH(4-Cl-2-F-phenyl) = Fc1cc(Cl)ccc1N*; Pro(4R-Me) = C[C@H]1CN[C@H](C(=O)O)C1; Propanoyl(3-NMe2) = CN(C)CCC(=O)*; Hyp = O=C(O)[C@@H]1C[C@@H](O)CN1; aThr = C[C@H](O)[C@H](N)C(=O)O; Pip = O=C(O)[C@@H]1CCCCN1; CO = O=C([*:1])[*:2]
Experiments:
Test in all cases: NCI-60 cell line screen, 48 h
[1] = system: HOP-92 NSCLC
[2] = system: SK-OV-3 ovarian
[3] = system: MCF7 breast
[4] = system: HL-60(TB) leukemia
[5] = system: K-562 leukemia
[6] = system: OVCAR-5 ovarian
[7] = system: SK-MEL-5 melanoma
[8] = system: NCI/ADR-RES ovarian
[9] = system: RPMI-8226 leukemia
[10] = system: NCI-H226 lung

SMILES	GI50 [1]	TGI [1]	GI50 [2] [µM]	TGI [2] [µM]	GI50 [3] [µM]	TGI [3] [µM]	GI50 [4] [µM]	TGI [4] [µM]	GI50 [5] [µM]	TGI [5] [µM]	GI50 [6] [µM]	TGI [6] [µM]	GI50 [7] [µM]	TGI [7] [µM]	GI50 [8]	TGI [8] [µM]	GI50 [9] [µM]	TGI [9] [µM]	GI50 [10]	TGI [10] [µM]
COc1ccc(CNc2nc(NCc3ccc(OC)cc3)c3n[nH]c(C(C)C)c3n2)cc1	9.48 µM	37.4 µM	8.3	22.9	3.31	13.9	2.75	6.44	3.13	11.7	8.65	56.6	1.57	3.01	3.59 µM	15.9	3.27	12.5	14.1 µM	59.8
CN1CCCCC1CCN1c2ccccc2Sc2ccc(S(C)=O)cc21 (stereo not drawn)		> 100 µM		> 100		> 100		> 100		> 100		> 100		> 100		> 100		> 100		> 100
Cc1cccc(C[C@H](NC(=O)Nc2ccc(Cl)cc2F)C(=O)N[C@@H]2C(=O)N3C[C@H](OC(=O)CCN(C)C)C[C@H]3C(=O)N3CCCC[C@H]3C(=O)N[C@@H](C)C(=O)N3C[C@H](C)C[C@H]3C(=O)O[C@H]2C)c1 ({NH(4-Cl-2-F-phenyl)-CO}-[Phe(3-Me)][aThr][Hyp](Propanoyl(3-NMe2))[Pip]A[Pro(4R-Me)]; ester 2-C)	0.572 µM	2.66 µM	0.487	5.74	0.394	1.83	0.354	1.9	0.3		0.552	2.53	0.46	1.62	10.8 µM	28.5	0.181	1.88	0.45 µM	2.19
CCCCCCCCCC(CCCC(O)CC(=O)O)OC1OC(COC2OC(C)C(O)C(O)C2O)C(O)C(O)C1OC1OC(CO)C(O)C(O)C1OC1OC(C)C(O)C(O)C1O (stereo not drawn)	> 40 µM	> 40 µM	> 40	> 40	> 40	> 40	> 40	> 40	> 40	> 40	> 40	> 40	> 40	> 40	> 40 µM	> 40	> 40	> 40	> 40 µM	> 40
O=C(/C=C/c1cccnc1)c1ccccc1O	10.4 µM	32.5 µM	33.7	> 100	32.3	> 100	18.1	43	20.9	80	19	46.7	16.1	31.1	24.6 µM	> 100	12.9	39	20 µM	51.7
CC([O-])C(=O)[O-].NCC1CCC1CN.[Pt+4] (stereo not drawn)	> 10 µM	> 10 µM	> 10	> 10	6.89	> 10	> 10	> 10	> 10	> 10	> 10	> 10	7.41	> 10	> 10 µM	> 10	> 10	> 10	> 10 µM	> 10
CC(=O)Nc1sc2c(c1-c1nc3ccccc3s1)CNC2	4.21 µM	19.2 µM	4.05	39.2	0.865	7.88	2.84	11.6	2.23	11.1	3.05	18	5.23	11.2	1.97 µM	15.7	3.57	19.3	3.27 µM	16.7
COc1cc(OC)cc(-c2cncn2-c2ccc(-c3nc4cc(OC)c(OC)c(OC)c4s3)cc2)c1	> 100 µM	> 100 µM	49.9	> 100	4.02	> 100	2.43	> 100	3.57	> 100	> 100	> 100	2.85	> 100	11 µM	> 100	2.9	> 100	21.7 µM	> 100
Nc1c(C(=O)Nc2ccccc2)sc2nc3c(cc12)CCCC3	0.509 µM	> 100 µM	0.832	37.5	0.355	> 100	0.299	20.8	0.436	> 100	18.6	> 100	0.365	2.24	0.683 µM	> 100	0.681	11.5	3.31 µM	> 100
CCN(CC)CC(O)C1CCC(c2ccccc2)CC1 (stereo not drawn)		86.9 µM		36.6		84.6		58		> 100		88.9		30.4		> 100		39		33.3
C/C(=N\NC(=O)c1ccncc1)c1ccc(O)cc1O	17.1 µM	> 100 µM	5.34	> 100	4.92	> 100	3.4	32.6	6.62	> 100	27	> 100	3.47	29.6	3.42 µM	> 100	31.5	> 100	5.14 µM	80.9
COc1ccc(-c2nocc2-c2cc(OC)c(OC)c(OC)c2)cc1	2.02 µM	59 µM	0.142	> 82.8	0.0387	> 100	0.0387	0.886	0.0426	> 100	1.38	> 100	0.0736	4.45	0.0492 µM	> 61	0.348	30.9	14.9 µM	56.1
CN1CCCN(C(c2ccccc2)c2ccc(Br)cc2)CC1 (stereo not drawn)	0.635 µM	7.73 µM	3.66	14.5	2.63	10	3.52	34.1	5.04	> 100	10.7	22.5	1.85	3.74	3.09 µM		9.04	36.2	7.23 µM	20.8
Cc1ccc(NC(=O)c2nc(S(C)=O)oc2-c2ccc(F)cc2)cc1Nc1nccc(-c2cccnc2)n1 (stereo not drawn)	2.13 µM	4.69 µM	10.5	25.7	1.87	3.86	3.06	10.9	0.454	3.3	4.46	30.1	1.84	3.59	3.07 µM	11.9	2.43	6.5	3.84 µM	25.8
C=C1N(C)c2ccc(Cl)cc2C1(C)C	3.72 µM	22.9 µM	18.1	65.4	6.65	58.7	2.33	8.85	3.75	> 100	31	> 100	4.32	15	34.8 µM	> 100	2.56	10.4	16.4 µM	> 100
O=C(Nc1ccc(Br)cc1F)c1cc(Br)ccc1O	0.177 µM	0.651 µM	1.62	8.12	0.906	8.96	0.59	3.59	0.453	> 35.9	2.97	33.3	0.289	1.19	0.876 µM	5.44	0.322	2.02	0.688 µM	7.76
COc1cc2c3c(c4c5ccccc5[nH]c4c2c(OC)c1OC)C(=O)N(CCN1CCCCC1)C3=O	1.3 µM	5.21 µM	1.18	2.53	0.734	3.09	8.15	> 41	0.71		1.29	3.05	1.88	5.31	0.892 µM	3.19	1.06	4.17	1.08 µM	4.57
Nc1nc2c(c3cnccc13)C(c1cccc(Cl)c1)Cc1cnccc1-2 (stereo not drawn)	0.811 µM	18.2 µM	0.51	15	0.292	11.6	0.278	5.27	0.338	28.7	0.706	18.6	0.398	2.04	0.237 µM	0.663	0.48	20.2	0.673 µM	14.7
CCc1ccc(Nc2cc(C)nc3nc(C)nn23)cc1	28.9 µM	> 100 µM	> 100	> 100	36.7	> 100	> 100	> 100	35.5	> 100	> 100	> 100	32.9	> 100	49.4 µM	> 100	32	> 100	85 µM	> 100
NC[C@@](O)(c1ccc(Cl)cc1)c1ccc(-c2cn[nH]c2)cc1	0.0445 µM and 0.0376 µM	1.85 µM and 1.45 µM	2.23	> 10	1.1	2.54	1.7	4.13	1.69	3.53	8.67	> 10		> 100	3.48 µM and 2.2 µM		2.23	4.95	1.42 µM and 2.19 µM	> 100
CC/C=C\C/C=C\C[C@H]1C/C=C2/C(=O)C=C[C@H]2C/C=C\CCC(=O)O1	2.72 µM	8.01 µM	10	> 14.3	0.824	11.8	3.55	12.2	2.84	> 14.3	4.13	> 14.3	2.24	4.41	4.7 µM	> 14.3	1.29	7.45	2.78 µM	8.54
COc1ccc(/C=C/C(=O)c2ccc(Nc3ccnc4cc(Cl)ccc34)cc2)cc1	> 100 µM	> 100 µM	> 100	> 100	2.85	> 42.3		> 35	4.15	> 54	> 100	> 100	21.6	> 100	> 100 µM	> 100	4.94	> 55.6	> 100 µM	> 100
O=C(CCl)Nc1ccc2c(c1)C(=O)c1ccc(NC(=O)CCl)cc1C2=O	1.13 µM	2.61 µM	1.63	7.01	0.194	0.79	0.454	3.08	0.319	> 100	0.371	1.63	0.214	0.502	0.352 µM	1.78	0.434	2.23	0.229 µM	0.711
O=C1c2cccnc2C(=O)c2c1c(C(=O)OCCN1CCOCC1)c1ccccn21	0.0262 µM	0.319 µM	< 0.01	0.0371	< 0.01	0.041	0.0789	3.21	0.0198		0.276	1.65	0.0189	0.135	< 0.01 µM	13	0.0914	4.65	< 0.017 µM	0.696
COc1ccc(-c2coc3cc(OC)cc(O)c3c2=O)cc1		94.6 µM		> 100		> 100		> 100		> 100		> 100		> 100		> 100		> 100		> 100
